Assay results as given in patent publication US4147869A, “3,4-Dihydrocarbostyril derivatives and process for preparing the same” (Otsuka Pharmaceutical Co., Ltd., priority 1976, dated 1979).
Structures can show the parent of a compound that is named as a salt. Where two headings read alike, the source gives them in different places.

Columns and labels:
β-adrenoreceptor = test: β-adrenergic blocking activity in anesthetized dogs: antagonism (Inhibition %) of isoprenaline-induced responses; format: in vivo, dog; conditions: 300 μg/kg i.v., 10 minutes after; for Inhibition (%) dBP (antagonism to the depression of diastolic blood pressure induced by isoprenaline) / Inhibition (%) HR (antagonism to the increase in heart rate induced by isoprenaline): isoprenaline 1 μg/kg i.v.; for Inhibition (%) AR (antagonism to the depression by isoprenaline in increase of air-way resistance induced by histamine): isoprenaline 1 μg/kg, histamine 5 μg/kg i.v.
Procedure: The β-adrenergic blocking activity of the compounds of this invention was determined as follows:
Male hybrid adult dogs, weighing 10 to 16 kg, were anesthesized with sodium pentobarbital administered intravenously at a level of 30 mg/kg of body weight, and a cannula was inserted into the trachea of each of the anesthesized dogs. In order to avoid blood coagulation, heparin was administered intravenously at a level of 1000 units and thereafter a cannula was inserted into the right femoral artery. The experiments were conducted under artificial respiration at a rate of 20 ml/kg, 18 r.p.m.
The above parameters were continuously recorded on a polygraph (8S 28 Type, tradename of Sanei Sokki Co., Japan). During the experiment, gallamine was administered intravenously at a dosage of 3 mg/kg at one-hour intervals to avoid fluctuation of air-way resistance.
The β-adrenergic blocking activity of each of the test compounds was evaluated in terms of antagonism (Inhibition %) to the depression at the diastolic blood pressure (dBP) and to the increase in the heart rate induced by the intravenous administration of isoprenaline (1 μg/kg) and in terms of antagonism (Inhibition %) to the depression by isoprenaline in increase of air-way resistance which was induced by intravenous administration of histamine (5 μg/kg). In this case, histamine was administered 45 seconds after the administration of isoprenaline.

[1] = acute toxicity (LD50) by intravenous and oral administration; conditions: rat, in vivo, fasted 12 hours
Procedure: Further, the acute toxicity of the compounds of the present invention having the formula (I) was determined by intravenous administration (i.v.) and oral administration (p.o.) in 5 to 6 groups of […] (dd strain; body weight, 18 to 22 g; 10 rats in each group) which have been fasted for 12 hours prior to the test.

[2] = iv, male rats, i.v., read-out: LD50 i.v.
[3] = po, male rats, p.o., read-out: LD50 p.o.

SMILES	Inhibition (%) dBP (antagonism to the depression of diastolic blood pressure induced by isoprenaline) (β-adrenoreceptor)	Inhibition (%) HR (antagonism to the increase in heart rate induced by isoprenaline) (β-adrenoreceptor)	Inhibition (%) AR (antagonism to the depression by isoprenaline in increase of air-way resistance induced by histamine) (β-adrenoreceptor)	LD50 ([1]; iv, female rats, i.v., read-out: LD50 i.v.)	LD50 [1, 2]	LD50 ([1]; po, female rats, p.o., read-out: LD50 p.o.)	LD50 [1, 3]
CC(=O)Nc1ccc2c(c1OCC(O)CNC(C)C)CCC(=O)N2 (centres unmarked) [compound 1]	17.8%	25.3%	11.3%	–	–	–	–
COc1ccc(CCNCC(O)COc2ccc(NC(C)=O)c3c2CCC(=O)N3)cc1OC (centres unmarked) [compound 2]	25.5%	30.2%	10.8%	142 mg/kg	158 mg/kg	1230 mg/kg	1350 mg/kg
COc1ccc(OCCNCC(O)COc2ccc(NC(N)=O)c3c2CCC(=O)N3)cc1 (centres unmarked) [compound 3]	31.8%	39.6%	14.7%	–	156 mg/kg	–	1340 mg/kg
CCOC(=O)Nc1ccc(OCC(O)CNCCOc2ccc(C(N)=O)cc2)c2c1NC(=O)CC2 (centres unmarked) [compound 4]	3.4%	47.3%	2.5%	–	145 mg/kg	–	1210 mg/kg
CC(NCC(O)COc1ccc(NC(=O)C2CCCCC2)c2c1CCC(=O)N2)c1ccccc1 (centres unmarked) [compound 5]	42.4%	53.3%	23.2%	–	–	–	–
COc1ccc(CCNCC(O)COc2c(NC(C)=O)ccc3c2CCC(=O)N3)cc1OC (centres unmarked) [compound 6]	11.3%	37.2%	12.6%	–	160 mg/kg	–	1380 mg/kg
Cc1ccc(S(=O)(=O)Nc2ccc(OCC(O)CNCCOc3ccc(C(N)=O)cc3)c3c2NC(=O)CC3)cc1 (centres unmarked) [compound 7]	11.4%	26.8%	10.2%	–	115 mg/kg	–	1120 mg/kg
Cc1ccccc1N1CCN(CC(O)COc2ccc(NS(C)(=O)=O)c3c2CCC(=O)N3)CC1 (centres unmarked) [compound 8]	6.4%	21.0%	7.1%	–	–	–	–
NC(=O)Nc1ccc(OCC(O)CN2CCN(c3ccccc3Cl)CC2)c2c1NC(=O)CC2 (centres unmarked) [compound 9]	15.3%	23.6%	8.9%	–	–	–	–
COc1ccccc1N1CCN(CC(O)COc2ccc(NC(C)=O)c3c2CCC(=O)N3)CC1 (centres unmarked) [compound 10]	11.6%	21.7%	6.2%	–	125 mg/kg	–	1170 mg/kg
CC(C)(C)NCC(O)COc1cccc2c1CCC(=O)N2 (centres unmarked) [compound 11, 5-(3-t-butylamino-2-hydroxy)propoxy-3,4-dihydrocarbostyril hydrochloride, reference compound]	100%	100%	100%	–	–	–	–
COc1ccc(CCNCC(O)COc2cccc3c2CCC(=O)N3)cc1OC (centres unmarked) [compound 13, 5-(3,4-dimethoxyphenethylamino-2-hydroxy)propoxy-3,4-dihydrocarbostyril hydrochloride, reference compound]	65.6%	87.2%	79.1%	–	–	–	–
